How the values were obtained:
[1] = biological target: Sodium-dependent serotonin transporter (Rattus norvegicus, UniProt P31652); assay: Affinity at the 5-HT reuptake site labeled with [3H]paroxetine using rat frontal cortex membranes; format: tissue-based, Membrane
[2] = biological target: T1, 5-hydroxytryptamine receptor 1A (Homo sapiens) (UniProt P08908); assay: Maximal stimulation of expressed human 5-hydroxytryptamine 1A receptor assayed by [35S]GTP-gamma-S, binding; format: functional
T1 sequence (whole entry): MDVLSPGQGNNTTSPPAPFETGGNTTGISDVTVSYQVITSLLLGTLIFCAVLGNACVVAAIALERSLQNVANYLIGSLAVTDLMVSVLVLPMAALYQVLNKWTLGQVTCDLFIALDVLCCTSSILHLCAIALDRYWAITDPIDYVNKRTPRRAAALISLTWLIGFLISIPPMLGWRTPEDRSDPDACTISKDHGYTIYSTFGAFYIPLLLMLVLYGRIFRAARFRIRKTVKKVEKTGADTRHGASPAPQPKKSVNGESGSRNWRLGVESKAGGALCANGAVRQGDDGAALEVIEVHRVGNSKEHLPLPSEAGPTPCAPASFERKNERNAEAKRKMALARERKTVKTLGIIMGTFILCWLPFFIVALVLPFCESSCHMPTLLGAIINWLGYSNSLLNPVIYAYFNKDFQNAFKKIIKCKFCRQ

[3] = biological target: T2, 5-hydroxytryptamine receptor 1A (Homo sapiens, UniProt P08908); assay: Binding affinity towards 5-hydroxytryptamine 1A receptor in human using [3H]8-OH-DPAT as radioligand
T2 sequence (P08908 whole entry): T1 sequence (whole entry)

Sequence of Sodium-dependent serotonin transporter (P31652 whole entry): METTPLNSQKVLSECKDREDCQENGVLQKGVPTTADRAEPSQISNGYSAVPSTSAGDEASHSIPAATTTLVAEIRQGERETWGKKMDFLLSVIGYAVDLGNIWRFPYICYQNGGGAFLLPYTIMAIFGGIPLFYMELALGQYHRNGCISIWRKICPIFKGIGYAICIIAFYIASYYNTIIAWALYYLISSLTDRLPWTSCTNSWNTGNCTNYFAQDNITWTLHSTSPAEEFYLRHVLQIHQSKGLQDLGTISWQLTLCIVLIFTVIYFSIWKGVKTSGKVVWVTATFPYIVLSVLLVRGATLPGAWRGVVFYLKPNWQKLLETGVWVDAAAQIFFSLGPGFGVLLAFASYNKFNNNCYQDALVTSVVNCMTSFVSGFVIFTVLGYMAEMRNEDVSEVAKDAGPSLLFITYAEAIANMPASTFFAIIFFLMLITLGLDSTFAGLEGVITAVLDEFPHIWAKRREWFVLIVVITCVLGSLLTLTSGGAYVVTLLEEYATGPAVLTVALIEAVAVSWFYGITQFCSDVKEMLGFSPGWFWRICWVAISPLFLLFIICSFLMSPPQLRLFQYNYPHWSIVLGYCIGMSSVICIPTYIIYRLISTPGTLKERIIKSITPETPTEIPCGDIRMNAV

SMILES: Cc1cc2c(OC[C@@H](O)CN3CC[C@@H](c4cc5c(F)cccc5s4)C[C@@H]3C)cccc2[nH]1
- Ki [1]: 0.92 nM
- Emax [2]: 3.15%
- Ki [3]: 0.75 nM

SMILES: COc1cccc2sc([C@@H]3CCN(C[C@H](O)COc4cccc5oc(C)cc45)[C@@H](C)C3)cc12
- Ki [1]: 38.5 nM
- Emax [2]: 8.76%
- Ki [3]: 4.06 nM

SMILES: COc1cccc2sc([C@@H]3C[C@H]4CC[C@@H](C3)N4C[C@H](O)COc3cccc4[nH]c(C(N)=O)cc34)cc12
- Ki [1]: 0.37 nM
- Emax [2]: 11.3%
- Ki [3]: 12.4 nM

SMILES: Cc1cc2c(OC[C@@H](O)CN3CC[C@H](c4cc5cccc(F)c5s4)C[C@H]3C)cccc2[nH]1
- Ki [1]: 6.06 nM
- Emax [2]: 6.35%
- Ki [3]: 9.8 nM

SMILES: Cc1cc2c(OC[C@@H](O)CN3CC[C@H](c4cc5cccc(F)c5s4)C[C@@H]3C)cccc2[nH]1
- Ki [1]: 47.5 nM
- Ki [3]: 19.4 nM

SMILES: Cc1cc(C)c2cc([C@@H]3CCN(C[C@H](O)COc4cccc5[nH]c(C)cc45)[C@@H](C)C3)sc2c1
- Ki [1]: 1.99 nM
- Ki [3]: 105 nM

SMILES: Cc1cc2c(OC[C@@H](O)CN3CC[C@@H](c4cc5ccccc5s4)C[C@@H]3C)cccc2[nH]1
- Ki [1]: 0.53 nM
- Emax [2]: 6.09%
- Ki [3]: 7.11 nM

SMILES: COc1cccc2sc([C@@H]3CCN(C[C@H](O)COc4cccc5oc(C)cc45)[C@H](C)C3)cc12
- Ki [1]: 110 nM
- Ki [3]: 4.84 nM

SMILES: COc1cccc2sc([C@H]3C[C@H]4CC[C@@H](C3)N4C[C@H](O)COc3cccc4[nH]ccc34)cc12
- Ki [1]: 0.17 nM

SMILES: COc1cccc2sc([C@H]3CCN(C[C@H](O)COc4cccc5oc(C)cc45)[C@@H](C)C3)cc12
- Ki [1]: 76.1 nM

SMILES: COc1cccc2sc(C3CCN(C[C@H](O)COc4cccc5[nH]c(C)cc45)C(C)(C)C3)cc12 (stereo in doubt; 29)
- Ki [1]: 20.5 nM
- Ki [3]: 42.8 nM

SMILES: COc1cccc2sc(C3CCN(C[C@H](O)COc4cccc5[nH]c(C)cc45)C(C)(C)C3)cc12 (stereo in doubt; 28)
- Ki [1]: 118 nM
- Ki [3]: 9.42 nM

SMILES: Cc1cc2c(OC[C@@H](O)CN3CC[C@@H](c4cc5cccc(F)c5s4)C[C@@H]3C)cccc2[nH]1
- Ki [1]: 1.29 nM
- Emax [2]: 4.09%
- Ki [3]: 1.34 nM

SMILES: COc1cccc2sc([C@H]3CCN(C[C@H](O)COc4cccc5[nH]c(C)cc45)[C@H](C)C3)cc12
- Ki [1]: 3.3 nM
- Emax [2]: 2.38%
- Ki [3]: 28.1 nM

SMILES: COc1cccc2sc([C@H]3C[C@H]4CC[C@@H](C3)N4C[C@H](O)COc3cccc4[nH]c(C)cc34)cc12
- Ki [1]: 0.45 nM
- Emax [2]: 7.92%
- Ki [3]: 20.9 nM

SMILES: COc1cccc2sc([C@@H]3CCN(C[C@H](O)COc4cccc5[nH]c(C(N)=O)cc45)[C@@H](C)C3)cc12
- Ki [1]: 0.56 nM
- Emax [2]: 12.8%
- Ki [3]: 6.36 nM

SMILES: COc1cccc2sc([C@H]3CCN(C[C@H](O)COc4cccc5oc(C)cc45)[C@H](C)C3)cc12
- Ki [1]: 15.2 nM
- Emax [2]: 6.49%
- Ki [3]: 26.8 nM

SMILES: COc1cccc2sc([C@H]3CCN(C[C@H](O)COc4cccc5[nH]c(C(N)=O)cc45)[C@H](C)C3)cc12
- Ki [1]: 1.22 nM
- Ki [3]: 32 nM

SMILES: COc1cc(OC)c2cc([C@@H]3CCN(C[C@H](O)COc4cccc5[nH]c(C)cc45)[C@@H](C)C3)sc2c1
- Ki [1]: 2.79 nM
- Emax [2]: 7.62%
- Ki [3]: 23.1 nM

SMILES: Cc1cc2c(OC[C@@H](O)CN3CC[C@@H](c4cc5cc(F)ccc5s4)C[C@@H]3C)cccc2[nH]1
- Ki [1]: 0.24 nM
- Emax [2]: 9.05%
- Ki [3]: 5.65 nM

SMILES: Cc1cc2c(OC[C@@H](O)CN3CC[C@@H](c4cc5cc(Cl)ccc5s4)C[C@@H]3C)cccc2[nH]1
- Ki [1]: 1.02 nM
- Emax [2]: 8.42%
- Ki [3]: 15.7 nM

SMILES: COc1cccc2sc([C@@H]3C[C@H]4CC[C@@H](C3)N4C[C@H](O)COc3cccc4[nH]ccc34)cc12
- Emax [2]: 7.22%

SMILES: COc1ccc2cc([C@@H]3CCN(C[C@H](O)COc4cccc5[nH]c(C)cc45)[C@@H](C)C3)sc2c1
- Ki [1]: 2.37 nM
- Emax [2]: 3.21%
- Ki [3]: 13.5 nM

SMILES: COc1cccc2sc([C@@H]3C[C@H]4CC[C@@H](C3)N4C[C@H](O)COc3cccc4[nH]c(C)cc34)cc12
- Ki [1]: 0.69 nM
- Emax [2]: 2.98%
- Ki [3]: 9.2 nM

SMILES: Cc1cc2c(OC[C@@H](O)CN3CC[C@@H](c4cc5cccc(F)c5s4)C[C@H]3C)cccc2[nH]1
- Ki [1]: 34.4 nM
- Ki [3]: 2.12 nM

SMILES: COc1cccc2sc([C@@H]3CCN(C[C@H](O)COc4cccc5[nH]c(C(N)=O)cc45)[C@H](C)C3)cc12
- Ki [1]: 16.2 nM
- Emax [2]: 7.21%
- Ki [3]: 12.7 nM

SMILES: Cc1cc2c(OC[C@@H](O)CN3CC[C@@H](c4cc5ccc(F)cc5s4)C[C@@H]3C)cccc2[nH]1
- Ki [1]: 0.39 nM
- Emax [2]: 7.26%
- Ki [3]: 12.3 nM

SMILES: COc1cccc2sc([C@H]3CCN(C[C@H](O)COc4cccc5[nH]c(C(N)=O)cc45)[C@@H](C)C3)cc12
- Ki [1]: 6.61 nM

SMILES: Cc1cc2c(OC[C@@H](O)CN3CC[C@@H](c4cc5c(C)cccc5s4)C[C@@H]3C)cccc2[nH]1
- Ki [1]: 0.62 nM
- Emax [2]: 6.32%
- Ki [3]: 10.5 nM

SMILES: Cc1ccc2cc([C@@H]3CCN(C[C@H](O)COc4cccc5[nH]c(C)cc45)[C@@H](C)C3)sc2c1
- Ki [1]: 1.28 nM

SMILES: COc1cccc2sc([C@@H]3CCN(C[C@H](O)COc4cccc5[nH]c(C)cc45)[C@H](C)C3)cc12
- Ki [1]: 29 nM
- Emax [2]: 1.8%
- Ki [3]: 20.2 nM

SMILES: COc1cccc2sc([C@@H]3CCN(C[C@H](O)COc4cccc5[nH]c(C)cc45)[C@@H](C)C3)cc12
- Ki [1]: 0.86 nM
- Emax [2]: 4.76%
- Ki [3]: 14.3 nM

From ChEMBL document CHEMBL1136348, “Advances toward new antidepressants beyond SSRIs: 1-aryloxy-3-piperidinylpropan-2-ols with dual 5-HT1A receptor antagonism/SSRI activities. Part 3” (Bioorg Med Chem Lett, 2003)
